Assay results reported in patent US12661308B2, “Antimicrobial AZO compounds and uses thereof” (The Regents Of The University Of Colorado, A Body Corporate, priority 2019, dated 2026).
“Also recorded” adds a separate entry of the source.

How the values were obtained:
[1] = test system: L929 mouse epithelial cells; assay: MTT cytotoxicity of coated substrates (Example 3); assay type: cell-based; details: 0.5 mg/mL and 50 mg/mL coated substrates, cells grown 100 hr, relative to uncoated sample and negative control
Method: In this Example, the cytotoxicity of polymeric substrates coated with 0.5 mg/mL OH-AAZO and 50 mg/mL OH-AAZO in the manner described in Example 1 were tested using L929 mouse epithelial cells. The following six samples were prepared: polymeric substrate coated with 50 mg/mL OH-AAZO, polymeric substrate coated with 0.5 mg/mL OH-AAZO, uncoated polymeric substrate, positive control, negative control, and an empty well. All coatings were spin coated. All samples were run in triplicate.
The cells were grown on substrates for 100 hr with media replacement when necessary. L929 conditions: Passage 3. Initial concentration of cells: 1.67×10^4 cells/mL.
Methods and assumptions: • Wells containing MTT product were analyzed at 570 nm. • OD570 values were corrected based on OD570 values of wells containing MTT product+other reagents only (no cells). • Assumes 100% cell death (i.e., 0% cell viability) in these positive control wells. • Negative control (−) wells contained cells grown with no substrate. • Assumes all cell death occurred naturally.
Cell viability was calculated using the following equation: […]

[2] = test system: L929 mouse epithelial cells; assay: Cytotoxicity study, MTT (Example 4); assay type: cell-based; details: 50 mg/mL coated substrates
Method: Cytotoxicity studies were performed as described previously. Riss et al., Cell Viability Assays, (Promega). Briefly, L929 mouse epithelial cells were suspended in cell culture media (DMEM, 10% FBS, 1% penicillin streptomycin) to a final concentration of 1.06×10^5 cells/mL. 1 mL of the suspension was added to each well in a 24-well plate containing the substrates and allowed to grow to confluence. Cell growth was monitored via a phase contrast inverted microscope (Leica, WLD MPS32, Germany). Once confluent, the media was aspirated off, and 500 μL of a 1 mg/mL solution of MTT reagent in DMEM media was added to each well. The plate was incubated for 4 h, and 500 μL of 20% SDS in 50% DMF was added to each well containing the MTT reagent. The plate was incubated for an additional 24 h, then removed and analyzed by an absorbance reading at λ=570 nm (FIG. 10).

[3] = test system: S. oralis (ATCC 9811) biofilm; assay: Biofilm growth study, S. oralis; assay type: cell-based, Streptococcus oralis; details: 50 mg/mL coated substrate, 24 h time-period
Method: (§1) S. oralis and A. actinomycetemcomitans were streaked on a BHI agar plate and incubated at 37° C. and 5% CO2 for 48 h. An isolated colony was inoculated in 5 mL BHI media for 12 h under the same incubation conditions, followed by a 1:10 dilution in BHI media in a 96-well plate containing the substrates of interest. […]
(§2) Following biofilm growth in the 96-well plate, the substrates were aseptically removed from the 96-well plate and placed in a vial containing 5 mL of 1× PBS solution. The vials were sonicated in a water bath for 10 min at 45° C., and the wells that previously contained the substrates were briefly sonicated using a probe sonicator (3 W RMS output) for 10 s per well. 200 μL aliquots of the sonicated PBS solution were placed in a 96-well plate and diluted 1:10 in each subsequent row. 20 μL aliquots of the sonicated media wells were placed in a 96-well plate containing 180 μL of PBS solution and diluted 1:10 in each subsequent row. Each column was then plated at a volume of 10 μL on a BHI agar plate in triplicate. The plates were then incubated at 37° C. and 5% CO2 for 48 h. The CFUs on each plate were counted in order to quantify the amount of biofilm remaining on the surface of the substrate and the bacteria remaining in the media after the removal of the substrate using the following equations: […]

[4] = test system: A. actinomycetemcomitans (ATCC 43718) biofilm; assay: Biofilm growth study, A. actinomycetemcomitans; assay type: cell-based, Aggregatibacter actinomycetemcomitans; details: 50 mg/mL coated substrate, 24 h time-period
Method: as §1, §2

[5] = test system: Methicillin-susceptible S. aureus biofilm; assay: Biofilm growth study, S. aureus; assay type: cell-based, Staphylococcus aureus; details: 50 mg/mL coated substrate, 24 h time-period
Method: Methicillin-susceptible S. aureus biofilms were grown from a 20 h BHI liquid culture inoculated with an S. aureus colony. The liquid culture was diluted 10^3 to a stock solution in BHI, then diluted 1:10 in BHI media containing 0.4 wt. % glucose in a 96-well plate. The plate was incubated in the dark at 37 ° C. for 24 h.
as §2

[6] = test system: E. coli biofilm; assay: Biofilm growth study, E. coli; assay type: cell-based, Escherichia coli; details: 50 mg/mL coated substrate, 24 h time-period
Method: E. coli biofilms were grown from a 20 h BHI inoculated with an E. coli colony. The liquid culture was diluted 10^3 to a stock solution in BHI, then diluted 1:10 in BHI media in a 96-well plate. The plate was incubated in the dark at 37° C. for 24 h.
as §2

[7] = test system: S. pyogenes (Group A strep, GAS); assay: Growth study, S. pyogenes (Group A strep); assay type: cell-based, Streptococcus pyogenes; details: 50 mg/ML coated substrates, BHI media, 24 h time-period
Method: (§3) A single bacterial colony was inoculated in 4 mL BHI media. The colony was grown to mid-log phase (to approximately OD600=0.4), statically at 37° C., which for was approximately 4 hours for the S. agalactiae GBS, approximately 11 hours for the S. pyogenes GAS, and approximately 6 hours for the S. pneumaoniae. They were diluted 1:5 in 80% glycerol (in water) solution (4 parts culture, 1 part glycerol, for a final glycerol concentration of 16%). In a 96-well plate, each was diluted to 1:100 resulting in a final concentration of 1×10^6 CFU/mL and grown at 37° C. with 5% CO2.

[8] = test system: S. pneumoniae (Pneumonococcus, Pn); assay: Growth study, S. pneumoniae; assay type: cell-based, Streptococcus pneumoniae; details: 50 mg/ML coated substrates, BHI media, 24 h time-period
Method: as §3

[9] = test system: S. mutans biofilm; assay: S. mutans biofilm growth on coated pit and fissure dental sealants; assay type: cell-based, Streptococcus mutans; details: coating on pit and fissure sealants
Text: In some implementations, the azobenzene polymers can be used as an antimicrobial coating on pit and fissure dental sealants. […] Azobenzene coatings can be incorporated into pit and fissure sealants as an anti-bacterial coating to prevent tooth decay.

C=CC(=O)Oc1ccccc1/N=N/c1ccccc1O [OH-AAZO, phenolic acrylated azobenzene]
cytotoxicity (cell viability, MTT) [1]: non-cytotoxic; also recorded: does not contribute significantly to cytotoxicity
cytocompatibility [2]: cytocompatible
S. oralis growth on coated substrate and in media [3]: did not grow on the coated substrate nor in the media; also recorded: antibacterial effect was only observed
antibacterial effect on A. actinomycetemcomitans biofilm (CFUs) [4]: no discernable antibacterial effect or reduction in CFUs
antibacterial effect on S. aureus biofilm (CFUs) [5]: no discernable antibacterial effect or reduction in CFUs
antibacterial effect on E. coli biofilm (CFUs) [6]: no discernable antibacterial effect or reduction in CFUs
S. pyogenes growth on coated substrate and in media [7]: did not grow on the coated substrate nor in the media
S. pneumoniae growth on coated substrate and in media [8]: did not grow on the coated substrate nor in the media
S. mutans biofilm growth [9]: absent
